Measurements taken from ChEMBL document CHEMBL3886502, “Pyrrolinone carboxamide compounds useful as endothelial lipase inhibitors” (2016).

Molecular target: T1, Endothelial lipase (Homo sapiens, UniProt Q9Y5X9)
T1 sequence (Q9Y5X9 whole entry): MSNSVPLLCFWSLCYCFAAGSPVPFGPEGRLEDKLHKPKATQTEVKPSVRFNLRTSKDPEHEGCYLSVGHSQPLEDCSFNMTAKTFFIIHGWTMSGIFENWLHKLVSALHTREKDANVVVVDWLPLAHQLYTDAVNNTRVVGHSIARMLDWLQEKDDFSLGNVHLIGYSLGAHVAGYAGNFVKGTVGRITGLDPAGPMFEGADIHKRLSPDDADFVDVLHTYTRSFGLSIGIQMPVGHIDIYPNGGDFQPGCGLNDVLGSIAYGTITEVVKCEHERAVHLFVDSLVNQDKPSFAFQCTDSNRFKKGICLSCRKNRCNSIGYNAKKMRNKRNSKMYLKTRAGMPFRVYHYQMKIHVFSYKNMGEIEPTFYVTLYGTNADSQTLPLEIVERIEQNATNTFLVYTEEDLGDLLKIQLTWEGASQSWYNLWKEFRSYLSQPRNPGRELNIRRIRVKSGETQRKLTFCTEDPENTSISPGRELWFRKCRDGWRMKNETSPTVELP
Assay: Enzyme Assay: The enzymatic assay was measured using white, opaque 96-well half area plates. Each well contained 60 uL of assay buffer (50 mM HEPES pH 8.0, 50 mM NaCl and 1 mM CaCl2) and 2 ul of a DMSO solution containing compound of interest. Conditioned media obtained from HT-1080 cells, which were transformed by RAGE technology (Athersys) to overexpress endogenous EL, was added and the reaction was allowed to incubate for 20 min at 37° C. with gentle agitation. The reaction was started by the addition of 20 uL of a 1:4 dilution of vesicles. The final total reaction volume was 100 uL. The reaction rates were measured on a Gemini plate reader with an excitation wavelength of 488 nm and a emission of 530 nm. Readings were taken every 20 seconds for 10 min with agitation between each reading.
Assay type: cell-based

IC50	Compound
488 nM	O=C(NCCCc1ccc(Cl)c(Cl)c1)C1=C(O)C(=O)N(Cc2ccccc2C(=O)O)C1
436 nM	CN1CC(C(=O)NCCCc2ccccc2C(F)(F)F)=C(O)C1=O
486 nM	CC1C(C(=O)NCCCc2ccc(Cl)c(Cl)c2)=C(O)C(=O)N1CCc1ccc(F)cc1 (stereo not drawn)
